Test results taken from patent publication US12459932B2, “KIF18A inhibitors” (AMGEN INC., priority 2018, dated 2025).

Biological target: T1, Recombinant human KIF18A (1-467 His-tagged) (Homo sapiens, UniProt Q8NI77)
T1 construct: Recombinant human KIF18A (1-467 His-tagged) protein; His
Experiment: KIF18A Enzyme Assay: microtubule-stimulated ATPase activity (ADP-Glo)
Type: biochemical
Settings: 30 nM KIF18A, 30 μg/mL pig microtubules, ATP 75 μM (Km), ADP-Glo luminescence
Procedure, shortened: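 Measures microtubule-stimulated ATPase activity as ADP formed, detected by luminescence. Compounds were tested as 2-fold serial dilutions over 22 points. IC50 values came from four-parameter logistic fits.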

T1 sequence (Q8NI77 1-467): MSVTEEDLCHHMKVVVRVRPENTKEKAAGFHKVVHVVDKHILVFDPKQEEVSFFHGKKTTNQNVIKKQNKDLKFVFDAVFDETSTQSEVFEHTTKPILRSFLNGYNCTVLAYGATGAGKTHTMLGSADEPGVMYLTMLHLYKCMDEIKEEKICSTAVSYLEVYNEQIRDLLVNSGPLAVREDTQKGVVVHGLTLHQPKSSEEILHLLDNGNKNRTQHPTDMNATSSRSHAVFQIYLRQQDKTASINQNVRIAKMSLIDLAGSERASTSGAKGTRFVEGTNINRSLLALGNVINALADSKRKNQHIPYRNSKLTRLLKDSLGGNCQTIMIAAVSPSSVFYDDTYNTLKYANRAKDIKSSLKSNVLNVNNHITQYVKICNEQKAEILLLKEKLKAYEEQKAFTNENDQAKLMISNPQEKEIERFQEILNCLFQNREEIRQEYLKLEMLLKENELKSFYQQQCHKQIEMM
T1 sequence (P02550 whole entry partner): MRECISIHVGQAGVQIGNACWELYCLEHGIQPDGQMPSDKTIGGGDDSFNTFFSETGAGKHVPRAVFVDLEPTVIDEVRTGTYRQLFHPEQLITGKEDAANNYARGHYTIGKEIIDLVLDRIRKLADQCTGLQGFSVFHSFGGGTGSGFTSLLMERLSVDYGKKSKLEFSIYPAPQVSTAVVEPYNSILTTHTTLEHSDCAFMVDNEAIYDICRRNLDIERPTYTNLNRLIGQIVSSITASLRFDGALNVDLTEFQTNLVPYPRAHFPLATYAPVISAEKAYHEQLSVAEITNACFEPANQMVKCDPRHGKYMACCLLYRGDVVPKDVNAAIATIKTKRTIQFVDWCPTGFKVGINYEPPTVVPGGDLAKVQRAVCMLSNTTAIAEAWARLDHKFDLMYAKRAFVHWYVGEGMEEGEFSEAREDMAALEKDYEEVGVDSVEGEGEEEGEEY
T1 sequence (P02554 whole entry partner): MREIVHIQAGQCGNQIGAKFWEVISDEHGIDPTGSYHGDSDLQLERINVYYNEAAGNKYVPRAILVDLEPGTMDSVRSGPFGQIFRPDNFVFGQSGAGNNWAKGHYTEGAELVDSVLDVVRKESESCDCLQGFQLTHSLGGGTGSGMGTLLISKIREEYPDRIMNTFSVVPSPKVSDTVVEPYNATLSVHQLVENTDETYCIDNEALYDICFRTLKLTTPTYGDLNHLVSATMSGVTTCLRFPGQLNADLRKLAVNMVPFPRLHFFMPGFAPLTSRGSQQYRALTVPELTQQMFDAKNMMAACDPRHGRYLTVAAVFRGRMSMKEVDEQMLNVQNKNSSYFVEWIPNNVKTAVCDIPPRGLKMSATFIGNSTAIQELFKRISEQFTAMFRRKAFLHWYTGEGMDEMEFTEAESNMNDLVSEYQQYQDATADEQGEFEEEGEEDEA

Structure (SMILES) | IC50 [nM]
Cc1cc(NC(=O)c2ccc(NS(C)(=O)=O)cc2N2CCC3(CC2)CC3)nc(N2CCC(F)(F)CC2)c1 [Example 7-21, N-(6-(4,4-Difluoropiperidin-1-yl)-4-methylpyridin-2-yl)-4-(methylsulfonamido)-2-(6-azaspiro[2.5]octan-6-yl)benzamide] | 49
Cc1cc(NC(=O)c2ccc(NS(=O)(=O)C(C)(C)C)cc2N2CCC3(CC2)CC3)nc(N2CCC(F)(F)CC2)c1 [Example 7-22, N-(6-(4,4-Difluoropiperidin-1-yl)-4-methylpyridin-2-yl)-4-((1,1-dimethylethyl)sulfonamido)-2-(6-azaspiro[2.5]octan-6-yl)benzamide] | 103
Cc1cc(NC(=O)c2ccc(NS(=O)(=O)C3CCC3)cc2N2CCC3(CC2)CC3)nc(N2CCC(F)(F)CC2)c1 [Example 7-23, 4-(Cyclobutanesulfonamido)-N-(6-(4,4-difluoropiperidin-1-yl)-4-methylpyridin-2-yl)-2-(6-azaspiro[2.5]octan-6-yl)benzamide] | 110
Cc1cc(NC(=O)c2ccc(NS(=O)(=O)CC3CC3)cc2N2CCC3(CC2)CC3)nc(N2CCC(F)(F)CC2)c1 [Example 7-24, 4-((Cyclopropylmethyl)sulfonamido)-N-(6-(4,4-difluoropiperidin-1-yl)-4-methylpyridin-2-yl)-2-(6-azaspiro[2.5]octan-6-yl)benzamide] | 186
Cc1cc(NC(=O)c2ccc(NS(=O)(=O)C3CC3)cc2N2CCC3(CC2)CC3)nc(N2CCC(F)(F)CC2)c1 [Example 7-25, 4-(Cyclopropanesulfonamido)-N-(6-(4,4-difluoropiperidin-1-yl)-4-methylpyridin-2-yl)-2-(6-azaspiro[2.5]octan-6-yl)benzamide] | 39
O=C(Nc1cccc(N2CCC(F)(F)CC2)n1)c1ccc(NS(=O)(=O)CCO)cc1N1CCC2(CC1)CC2 [Example 7-26, N-(6-(4,4-Difluoropiperidin-1-yl)pyridin-2-yl)-4-((2-hydroxyethyl)sulfonamido)-2-(6-azaspiro[2.5]octan-6-yl)benzamide] | 23
Cc1cc(NC(=O)c2ccc(NS(C)(=O)=O)cc2N2CCC3(CC2)CC3)nc(N2CC(F)(F)C2)c1 [Example 7-27, N-(6-(3,3-Difluoroazetidin-1-yl)-4-methylpyridin-2-yl)-4-(methylsulfonamido)-2-(6-azaspiro[2.5]octan-6-yl)benzamide] | 14
Cc1cc(NC(=O)c2ccc(NS(=O)(=O)C(C)C)cc2N2CCC3(CC2)CC3)nc(N2CC(F)(F)C2)c1 [Example 7-28, N-(6-(3,3-Difluoroazetidin-1-yl)-4-methylpyridin-2-yl)-4-((1-methylethyl)sulfonamido)-2-(6-azaspiro[2.5]octan-6-yl)benzamide] | 68
Cc1cc(NC(=O)c2ccc(NS(=O)(=O)C(C)(C)C)cc2N2CCC3(CC2)CC3)nc(N2CC(F)(F)C2)c1 [Example 7-29, N-(6-(3,3-Difluoroazetidin-1-yl)-4-methylpyridin-2-yl)-4-((1,1-dimethylethyl)sulfonamido)-2-(6-azaspiro[2.5]octan-6-yl)benzamide] | 134
Cc1cc(NC(=O)c2ccc(NS(=O)(=O)C3CCC3)cc2N2CCC3(CC2)CC3)nc(N2CC(F)(F)C2)c1 [Example 7-30, 4-(Cyclobutanesulfonamido)-N-(6-(3,3-difluoroazetidin-1-yl)-4-methylpyridin-2-yl)-2-(6-azaspiro[2.5]octan-6-yl)benzamide] | 78
Cc1cc(NC(=O)c2ccc(NS(=O)(=O)CC3CC3)cc2N2CCC3(CC2)CC3)nc(N2CC(F)(F)C2)c1 [Example 7-31, 4-((Cyclopropylmethyl)sulfonamido)-N-(6-(3,3-difluoroazetidin-1-yl)-4-methylpyridin-2-yl)-2-(6-azaspiro[2.5]octan-6-yl)benzamide] | 59
Cc1cc(NC(=O)c2ccc(NS(=O)(=O)C3COC3)cc2N2CCC3(CC2)CC3)nc(N2CC(F)(F)C2)c1 [Example 7-32, N-(6-(3,3-Difluoroazetidin-1-yl)-4-methylpyridin-2-yl)-4-(oxetane-3-sulfonamido)-2-(6-azaspiro[2.5]octan-6-yl)benzamide] | 25
Cc1cc(NC(=O)c2ccc(NS(=O)(=O)C3CC3)cc2N2CCC3(CC2)CC3)nc(N2CC(F)(F)C2)c1 [Example 7-34, 4-(Cyclopropanesulfonamido)-N-(6-(3,3-difluoroazetidin-1-yl)-4-methylpyridin-2-yl)-2-(6-azaspiro[2.5]octan-6-yl)benzamide] | 41
C[C@@H]1CN(c2cccc(NC(=O)c3ccc(NS(=O)(=O)CCF)cc3N3CCC4(CC3)CC4)n2)CCO1 [Example 7-35, (R)-4-((2-Fluoroethyl)sulfonamido)-N-(6-(2-methylmorpholino)pyridin-2-yl)-2-(6-azaspiro[2.5]octan-6-yl)benzamide] | 24
Cc1cc(NC(=O)c2ccc(NS(=O)(=O)CF)cc2N2CCC3(CC2)CC3)nc(N2CCO[C@H](C)C2)c1 [Example 7-36, (R)-4-((Fluoromethyl)sulfonamido)-N-(4-methyl-6-(2-methylmorpholino)pyridin-2-yl)-2-(6-azaspiro[2.5]octan-6-yl)benzamide] | 62
CCS(=O)(=O)Nc1ccc(C(=O)Nc2cccc(N3CCO[C@H](C)C3)n2)c(N2CCC3(CC2)CC3)c1 [Example 7-37, (R)-4-(Ethylsulfonamido)-N-(6-(2-methylmorpholino)pyridin-2-yl)-2-(6-azaspiro[2.5]octan-6-yl)benzamide] | 50
C[C@@H]1CN(c2cccc(NC(=O)c3ccc(NS(=O)(=O)CF)cc3N3CCC4(CC3)CC4)n2)CCO1 [Example 7-38, (R)-4-((Fluoromethyl)sulfonamido)-N-(6-(2-methylmorpholino)pyridin-2-yl)-2-(6-azaspiro[2.5]octan-6-yl)benzamide] | 48
C[C@@H]1CN(c2cccc(NC(=O)c3ccc(NS(=O)(=O)CC(F)(F)F)cc3N3CCC4(CC3)CC4)n2)CCO1 [Example 7-39, (R)-N-(6-(2-methylmorpholino)pyridin-2-yl)-2-(6-azaspiro[2.5]octan-6-yl)-4-((2,2,2-trifluoroethyl)sulfonamido)benzamide] | 135
C[C@@H]1CN(c2cccc(NC(=O)c3ccc(NS(=O)(=O)C(F)(F)F)cc3N3CCC4(CC3)CC4)n2)CCO1 [Example 7-41, (R)-N-(6-(2-Methylmorpholino)pyridin-2-yl)-2-(6-azaspiro[2.5]octan-6-yl)-4-((trifluoromethyl)sulfonamido)benzamide] | 207
C[C@@H]1CN(c2cccc(NC(=O)c3ccc(NS(=O)(=O)CC(C)(C)O)cc3N3CCC4(CC3)CC4)n2)CCO1 [Example 7-42, (R)-4-((2-Hydroxy-2-methylpropyl)sulfonamido)-N-(6-(2-methylmorpholino)pyridin-2-yl)-2-(6-azaspiro[2.5]octan-6-yl)benzamide] | 111
CC(C)(C)NS(=O)(=O)c1cccc(NC(=O)c2ccc(NS(C)(=O)=O)cc2N2CCC3(CC2)CC3)n1 [Example 7-43, N-(6-(N-(tert-Butyl)sulfamoyl)pyridin-2-yl)-4-(methylsulfonamido)-2-(6-azaspiro[2.5]octan-6-yl)benzamide] | 55
O=C(Nc1cncc(N2CCC(F)(F)CC2)n1)c1ccc(NS(=O)(=O)CCO)cc1N1CCC2(CC1)CC2 [Example 7-44, N-(6-(4,4-Difluoropiperidin-1-yl)pyrazin-2-yl)-4-((2-hydroxyethyl)sulfonamido)-2-(6-azaspiro[2.5]octan-6-yl)benzamide] | 16
Cc1cc(NC(=O)c2ccc(NS(=O)(=O)C3(CO)CC3)cc2N2CCC3(CC2)CC3)nc(N2CCC(F)(F)CC2)c1 [Example 10, N-(6-(4,4-Difluoropiperidin-1-yl)-4-methylpyridin-2-yl)-4-((1-(hydroxymethyl)cyclopropane)-1-sulfonamido)-2-(6-azaspiro[2.5]octan-6-yl)benzamide] | 122
C[C@@H]1CN(c2cccc(NC(=O)c3ccc(NS(=O)(=O)C4(CO)CC4)cc3N3CCC4(CC3)CC4)n2)CCO1 [Example 10-1, (R)-4-((1-(Hydroxymethyl)cyclopropane)-1-sulfonamido)-N-(6-(2-methylmorpholino)pyridin-2-yl)-2-(6-azaspiro[2.5]octan-6-yl) benzamide] | 57
Cc1cc(NC(=O)c2ccc(NS(=O)(=O)C3(CO)CC3)cc2N2CCC3(CC2)CC3)nc(N2CC(F)(F)C2)c1 [Example 10-2, N-(6-(3,3-Difluoroazetidin-1-yl)-4-methylpyridin-2-yl)-4-((1-(hydroxymethyl)cyclopropane)-1-sulfonamido)-2-(6-azaspiro[2.5]octan-6-yl)benzamide] | 76
Cc1cc(NC(=O)c2ccc(NS(=O)(=O)CCO)cc2N2CCC3(CC2)CC3)nc(N2CC(F)(F)C2)c1 [Example 11, N-(6-(3,3-Difluoroazetidin-1-yl)-4-methylpyridin-2-yl)-4-((2-hydroxyethyl)sulfonamido)-2-(6-azaspiro[2.5]octan-6-yl)benzamide] | 31
CC1(S(=O)(=O)Nc2ccc(C(=O)Nc3cccc(OCC4CC4)n3)c(N3CCC4(CC3)CC4)c2)CC1 [Example 14, N-(6-(Cyclopropylmethoxy)pyridin-2-yl)-4-((1-methylcyclopropane)-1-sulfonamido)-2-(6-azaspiro[2.5]octan-6-yl)benzamide] | 19
CC(Oc1cccc(NC(=O)c2ccc(NS(=O)(=O)CCO)cc2N2CCC3(CC2)CC3)n1)C1CC1 (centres unmarked) [Example 16-1, N-(6-(1-Cyclopropylethoxy)pyridin-2-yl)-4-((2-hydroxyethyl)sulfonamido)-2-(6-azaspiro[2.5]octan-6-yl)benzamide] | 51
CC1(COc2cccc(NC(=O)c3ccc(NS(=O)(=O)CCO)cc3N3CCC4(CC3)CC4)n2)COC1 [Example 16-2, 4-((2-Hydroxyethyl)sulfonamido)-N-(6-((3-methyloxetan-3-yl)methoxy)pyridin-2-yl)-2-(6-azaspiro[2.5]octan-6-yl)benzamide] | 50
